Measurements: US20090018134A1, “Compounds - 945” (AstraZeneca AB, priority 2007, published 2009)

target: T1, mTOR (Homo sapiens, UniProt P42345); test: In Vitro mTOR Kinase Assay (Echo), Test (a)(ii); assay type: biochemical; conditions: table of enzyme assay Test (a)(ii); read-out: Test (a)(ii) IC50
T1 construct: FLAG; made in house
Method in brief: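 Inhibition expressed as IC50 from an AlphaScreen read-out: phospho-T389 p70 S6K antibody plus streptavidin donor/protein A acceptor beads, left overnight in the dark. The kinase reaction ran 2 h at room temperature, then was stopped with EDTA. Enzyme: FLAG-purified mTOR 1362-2549 fragment from stable HEK293 cells.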

T1 sequence (P42345 1362-2549): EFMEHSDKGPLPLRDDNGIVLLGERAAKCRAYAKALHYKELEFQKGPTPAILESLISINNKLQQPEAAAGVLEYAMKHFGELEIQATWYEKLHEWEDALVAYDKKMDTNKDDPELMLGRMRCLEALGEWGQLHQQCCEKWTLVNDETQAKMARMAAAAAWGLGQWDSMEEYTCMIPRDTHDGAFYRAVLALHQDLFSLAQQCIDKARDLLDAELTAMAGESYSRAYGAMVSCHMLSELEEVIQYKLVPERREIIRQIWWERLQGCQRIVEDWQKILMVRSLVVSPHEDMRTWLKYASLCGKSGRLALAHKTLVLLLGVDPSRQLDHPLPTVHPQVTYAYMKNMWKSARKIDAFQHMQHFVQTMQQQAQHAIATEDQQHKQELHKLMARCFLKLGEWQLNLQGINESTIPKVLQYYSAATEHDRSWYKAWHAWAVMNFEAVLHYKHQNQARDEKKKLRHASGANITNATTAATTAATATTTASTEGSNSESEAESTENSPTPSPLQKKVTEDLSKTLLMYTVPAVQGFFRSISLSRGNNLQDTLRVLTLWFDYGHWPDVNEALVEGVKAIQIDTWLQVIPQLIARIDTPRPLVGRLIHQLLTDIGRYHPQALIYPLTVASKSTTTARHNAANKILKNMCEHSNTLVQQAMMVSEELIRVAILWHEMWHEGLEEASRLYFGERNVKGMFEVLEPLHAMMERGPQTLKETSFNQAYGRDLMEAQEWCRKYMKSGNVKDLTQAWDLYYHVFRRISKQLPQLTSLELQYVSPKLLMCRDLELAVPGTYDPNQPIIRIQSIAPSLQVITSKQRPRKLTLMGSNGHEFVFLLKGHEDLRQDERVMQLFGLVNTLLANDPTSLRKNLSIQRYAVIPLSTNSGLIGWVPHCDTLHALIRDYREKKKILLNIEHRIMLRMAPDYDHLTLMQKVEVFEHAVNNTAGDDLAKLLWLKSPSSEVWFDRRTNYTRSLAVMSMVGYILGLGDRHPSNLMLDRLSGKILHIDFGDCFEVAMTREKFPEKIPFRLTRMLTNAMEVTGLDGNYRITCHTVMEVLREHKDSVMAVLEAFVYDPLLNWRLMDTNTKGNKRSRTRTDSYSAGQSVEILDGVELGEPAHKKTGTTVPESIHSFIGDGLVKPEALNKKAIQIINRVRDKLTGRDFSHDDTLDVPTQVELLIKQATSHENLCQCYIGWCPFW

`CCNC(=O)Nc1ccc(-c2nc(N3CCOC[C@@H]3C)cc(C3(S(C)(=O)=O)CC3)n2)cc1F` [Example 52b, 3-ethyl-1-[2-fluoro-4-[4-[(3S)-3-methylmorpholin-4-yl]-6-(1-methylsulfonylcyclopropyl)pyrimidin-2-yl]phenyl]urea] and `C[C@H]1COCCN1c1cc(C2(S(C)(=O)=O)CC2)nc(-c2ccc(NC(=O)NCCO)c(F)c2)n1` [Example 52c, 1-[2-fluoro-4-[4-[(3S)-3-methylmorpholin-4-yl]-6-(1-methylsulfonylcyclopropyl)pyrimidin-2-yl]phenyl]-3-(2-hydroxyethyl)urea] are within 1.5-fold of each other in IC50: 30.7 nM for the first, 29.6 nM for the second.

`CNC(=O)Nc1ccc(-c2nc(N3CCOC[C@@H]3C)cc(C3(S(=O)(=O)c4cccc(F)c4)CC3)n2)cc1` [Example 53, 1-[4-[4-[1-(3-Fluorophenyl)sulfonylcyclopropyl]-6-[(3S)-3-methylmorpholin-4-yl]pyrimidin-2-yl]phenyl]-3-methylurea] and `CCNC(=O)Nc1ccc(-c2nc(N3CCOC[C@@H]3C)cc(C3(S(=O)(=O)c4cccc(F)c4)CC3)n2)cc1` [Example 53e, 1-ethyl-3-[4-[4-[1-(3-fluorophenyl)sulfonylcyclopro-pyl]-6-[(3S)-3-methylmorpholin-4-yl]pyrimidin-2-yl]phenyl]urea] are within 1.5-fold of each other in IC50: 2.18 nM for the first, 1.98 nM for the second.

Going from `C[C@H]1COCCN1c1cc(C2(S(=O)(=O)c3cccc(F)c3)CC2)nc(-c2ccc(NC(=O)NC3CC3)cc2)n1` [Example 53a, 3-cyclopropyl-1-[4-[4-[1-(3-fluorophenyl)sulfonylcyclopro-pyl]-6-[(3S)-3-methylmorpholin-4-yl]pyrimidin-2-yl]phenyl]urea] to `C[C@H]1COCCN1c1cc(C2(S(=O)(=O)c3cccc(F)c3)CC2)nc(-c2ccc(NC(=O)NCCO)cc2)n1` [Example 53b, 1-[4-[4-[1-(3-fluorophenyl)sulfonylcyclopro-pyl]-6-[(3S)-3-methylmorpholin-4-yl]pyrimidin-2-yl]phenyl]-3-(2-hydroxyethyl)urea], the IC50 falls from 2.29 nM to 0.669 nM (3.4-fold).

Compared with `C[C@H]1COCCN1c1cc(C2(S(=O)(=O)c3cccc(F)c3)CC2)nc(-c2ccc(NC(=O)NCCF)cc2)n1` [Example 53c, 3-(2-fluoroethyl)-1-[4-[4-[1-(3-fluorophenyl)sulfonylcyclopro-pyl]-6-[(3S)-3-methylmorpholin-4-yl]pyrimidin-2-yl]phenyl]urea], `C[C@H]1COCCN1c1cc(C2(S(=O)(=O)c3cccc(F)c3)CC2)nc(-c2ccc(NC(=O)NCC(F)F)cc2)n1` [Example 53d, 3-(2,2-difluoroethyl)-1-[4-[4-[1-(3-fluorophenyl)sulfonylcyclopro-pyl]-6-[(3S)-3-methylmorpholin-4-yl]pyrimidin-2-yl]phenyl]urea] is 4.5-fold higher in IC50: 0.688 nM for the first, 3.1 nM for the second. The first is the more potent here.

Compared with `C[C@H]1COCCN1c1cc(C2(S(=O)(=O)c3cccc(F)c3)CC2)nc(-c2ccc(NC(=O)Nc3cnn(C)c3)cc2)n1` [Example 53f, 1-[4-[4-[1-(3-fluorophenyl)sulfonylcyclopro-pyl]-6-[(3S)-3-methylmorpholin-4-yl]pyrimidin-2-yl]phenyl]-3-(1-methylpyrazol-4-yl)urea], `Cc1ccccc1S(=O)(=O)C1(c2cc(N3CCOC[C@@H]3C)nc(-c3ccc(NC(=O)Nc4cnn(C)c4)cc3)n2)CC1` [Example 54f, 1-[4-[4-[(3S)-3-methylmorpholin-4-yl]-6-[1-(2-methylphenyl)sulfonylcyclo-propyl]pyrimidin-2-yl]phenyl]-3-(1-methylpyrazol-4-yl)urea] is 1.7-fold higher in IC50: 6.34 nM for the first, 10.7 nM for the second.

Going from `CNC(=O)Nc1ccc(-c2nc(N3CCOC[C@@H]3C)cc(C3(S(=O)(=O)c4ccccc4C)CC3)n2)cc1` [Example 54, 3-Methyl-1-[4-[4-[(3S)-3-methylmorpholin-4-yl]-6-[1-(2-methylphenyl)sulfonylcyclopropyl]pyrimidin-2-yl]phenyl]urea] to `CCNC(=O)Nc1ccc(-c2nc(N3CCOC[C@@H]3C)cc(C3(S(=O)(=O)c4ccccc4C)CC3)n2)cc1` [Example 54e, 1-ethyl-3-[4-[4-[(3S)-3-methylmorpholin-4-yl]-6-[1-(2-methylphenyl)sulfonylcyclo-propyl]pyrimidin-2-yl]phenyl]urea], the IC50 rises from 2.17 nM to 7.62 nM (3.5-fold).

Going from `Cc1ccccc1S(=O)(=O)C1(c2cc(N3CCOC[C@@H]3C)nc(-c3ccc(NC(=O)NC4CC4)cc3)n2)CC1` [Example 54a, 3-cyclopropyl-1-[4-[4-[(3S)-3-methylmorpholin-4-yl]-6-[1-(2-methylphenyl)sulfonylcyclo-propyl]pyrimidin-2-yl]phenyl]urea] to `Cc1ccccc1S(=O)(=O)C1(c2cc(N3CCOC[C@@H]3C)nc(-c3ccc(NC(=O)NCCO)cc3)n2)CC1` [Example 54b, 3-(2-hydroxyethyl)-1-[4-[4-[(3S)-3-methylmorpholin-4-yl]-6-[1-(2-methylphenyl)sulfonylcyclo-propyl]pyrimidin-2-yl]phenyl]urea], the IC50 falls from 9.18 nM to 3.17 nM (2.9-fold).

Compared with `Cc1ccccc1S(=O)(=O)C1(c2cc(N3CCOC[C@@H]3C)nc(-c3ccc(NC(=O)NCCF)cc3)n2)CC1` [Example 54c, 3-(2-fluoroethyl)-1-[4-[4-[(3S)-3-methylmorpholin-4-yl]-6-[1-(2-methylphenyl)sulfonylcyclo-propyl]pyrimidin-2-yl]phenyl]urea], `Cc1ccccc1S(=O)(=O)C1(c2cc(N3CCOC[C@@H]3C)nc(-c3ccc(NC(=O)NCC(F)F)cc3)n2)CC1` [Example 54d, 3-(2,2-difluoroethyl)-1-[4-[4-[(3S)-3-methylmorpholin-4-yl]-6-[1-(2-methylphenyl)sulfonylcyclo-propyl]pyrimidin-2-yl]phenyl]urea] is 1.9-fold higher in IC50: 4.53 nM for the first, 8.82 nM for the second.

Compared with `CNC(=O)Nc1ccc(-c2nc(N3CCOC[C@@H]3C)cc(C3(S(=O)(=O)c4cn(C)nc4C)CC3)n2)cc1` [Example 55, 1-[4-[4-[1-(1,3-Dimethylpyrazol-4-yl)sulfonylcyclopropyl]-6-[(3S)-3-methylmorpholin-4-yl]pyrimidin-2-yl]phenyl]-3-methylurea], `CCNC(=O)Nc1ccc(-c2nc(N3CCOC[C@@H]3C)cc(C3(S(=O)(=O)c4cn(C)nc4C)CC3)n2)cc1` [Example 55e, 3-[4-[4-[1-(1,3-dimethylpyrazol-4-yl)sulfonylcyclopropyl]-6-[(3S)-3-methylmorpholin-4-yl]pyrimidin-2-yl]phenyl]-1-ethylurea] is 6.9-fold higher in IC50: 2.96 nM for the first, 20.4 nM for the second. The first is the more potent here.

`Cc1nn(C)cc1S(=O)(=O)C1(c2cc(N3CCOC[C@@H]3C)nc(-c3ccc(NC(=O)NC4CC4)cc3)n2)CC1` [Example 55a, 3-cyclopropyl-1-[4-[4-[1-(1,3-dimethylpyrazol-4-yl)sulfonylcyclopropyl]-6-[(3S)-3-methylmorpholin-4-yl]pyrimidin-2-yl]phenyl]urea] and `Cc1nn(C)cc1S(=O)(=O)C1(c2cc(N3CCOC[C@@H]3C)nc(-c3ccc(NC(=O)NCCO)cc3)n2)CC1` [Example 55b, 1-[4-[4-[1-(1,3-dimethylpyrazol-4-yl)sulfonylcyclopropyl]-6-[(3S)-3-methylmorpholin-4-yl]pyrimidin-2-yl]phenyl]-3-(2-hydroxyethyl)urea] are within 1.5-fold of each other in IC50: 21.3 nM for the first, 16.1 nM for the second.

Compared with `Cc1nn(C)cc1S(=O)(=O)C1(c2cc(N3CCOC[C@@H]3C)nc(-c3ccc(NC(=O)NCCF)cc3)n2)CC1` [Example 55c, 1-[4-[4-[1-(1,3-dimethylpyrazol-4-yl)sulfonylcyclopropyl]-6-[(3S)-3-methylmorpholin-4-yl]pyrimidin-2-yl]phenyl]-3-(2-fluoroethyl)urea], `Cc1nn(C)cc1S(=O)(=O)C1(c2cc(N3CCOC[C@@H]3C)nc(-c3ccc(NC(=O)NCC(F)F)cc3)n2)CC1` [Example 55d, 3-(2,2-difluoroethyl)-1-[4-[4-[1-(1,3-dimethylpyrazol-4-yl)sulfonylcyclopropyl]-6-[(3S)-3-methylmorpholin-4-yl]pyrimidin-2-yl]phenyl]urea] is 1.9-fold higher in IC50: 18.9 nM for the first, 35.1 nM for the second. The first is the more potent here.

`Cc1nn(C)cc1S(=O)(=O)C1(c2cc(N3CCOC[C@@H]3C)nc(-c3ccc(NC(=O)Nc4cnn(C)c4)cc3)n2)CC1` [Example 55f, 1-[4-[4-[1-(1,3-dimethylpyrazol-4-yl)sulfonylcyclopropyl]-6-[(3S)-3-methylmorpholin-4-yl]pyrimidin-2-yl]phenyl]-3-(1-methylpyrazol-4-yl)urea] and `CNC(=O)Nc1ccc(-c2nc(N3CCOC[C@@H]3C)cc(C3(S(=O)(=O)c4ccc(NC)cc4F)CC3)n2)cc1` [Example 57, 1-[4-[4-[1-(2-Fluoro-4-methylaminophenyl)sulfonylcyclopropyl]-6-[(3S)-3-methylmorpholin-4-yl]pyrimidin-2-yl]phenyl]-3-methylurea] are within 1.5-fold of each other in IC50: 15.6 nM for the first, 11.9 nM for the second.

`O=C(Nc1ccc(-c2nc(N3CCOCC3)cc(C3(S(=O)(=O)c4ccccn4)CC3)n2)cc1)NC1CC1` [Example 56, 3-Cyclopropyl-1-[4-[4-morpholin-4-yl-6-(1-Pyridin-2-ylsulfonylcyclopropyl)pyrimidin-2-yl]phenyl]urea] and `CNC(=O)Nc1ccc(-c2nc(N3CCOCC3)cc(C3(S(=O)(=O)c4ccccn4)CC3)n2)cc1` [Example 56a, 3-methyl-1-[4-[4-morpholin-4-yl-6-(1-pyridin-2-ylsulfonylcyclopropyl)pyrimidin-2-yl]phenyl]urea] are within 1.5-fold of each other in IC50: 2.31 nM for the first, 2.26 nM for the second.

First: CCNC(=O)Nc1ccc(-c2nc(N3CCOCC3)cc(C3(S(=O)(=O)c4ccccn4)CC3)n2)cc1 [Example 56b, 3-ethyl-1-[4-[4-morpholin-4-yl-6-(1-pyridin-2-ylsulfonylcyclopropyl)pyrimidin-2-yl]phenyl]urea]
Second: O=C(NCCO)Nc1ccc(-c2nc(N3CCOCC3)cc(C3(S(=O)(=O)c4ccccn4)CC3)n2)cc1 [Example 56c, 3-(2-hydroxyethyl)-1-[4-[4-morpholin-4-yl-6-(1-pyridin-2-ylsulfonylcyclopropyl)pyrimidin-2-yl]phenyl]urea]
The IC50 of the first is 3.8-fold lower: 1.65 nM for the first, 6.23 nM for the second.

Molecule `Cn1cc(NC(=O)Nc2ccc(-c3nc(N4CCOCC4)cc(C4(S(=O)(=O)c5ccccn5)CC4)n3)cc2)cn1` [Example 56d, 3-(1-methylpyrazol-4-yl)-1-[4-[4-morpholin-4-yl-6-(1-pyridin-2-ylsulfonylcyclopropyl)pyrimidin-2-yl]phenyl]urea] has an IC50 of 4.3 nM.
